Source: US10168342B2, “Lipid probes and uses thereof” (THE SCRIPPS RESEARCH INSTITUTE, priority 2015, dated 2019)

How the values were obtained:
Assay in all cases: In situ competitive SILAC profiling with A-DA probe in (PMA-stimulated) A549 cells
Details in all cases: A549 cells, A-DA probe
[1] = target: T1, A-DA lipid probe targets in A549 cells (Homo sapiens, UniProt P50402)
T1 sequence (P50402 1-254): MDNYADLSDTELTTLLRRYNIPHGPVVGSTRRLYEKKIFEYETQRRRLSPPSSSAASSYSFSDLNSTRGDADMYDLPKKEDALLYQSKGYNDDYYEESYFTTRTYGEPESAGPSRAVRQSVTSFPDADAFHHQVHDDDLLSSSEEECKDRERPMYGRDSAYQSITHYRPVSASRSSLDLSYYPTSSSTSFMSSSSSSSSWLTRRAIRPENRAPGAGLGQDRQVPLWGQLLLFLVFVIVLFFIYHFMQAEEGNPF

[2] = target: A-DA lipid probe targets in A549 cells (Homo sapiens, UniProt Q14534)
[3] = target: T2, A-DA lipid probe targets in A549 cells (Homo sapiens, UniProt Q53GQ0)
T2 sequence (Q53GQ0 1-312): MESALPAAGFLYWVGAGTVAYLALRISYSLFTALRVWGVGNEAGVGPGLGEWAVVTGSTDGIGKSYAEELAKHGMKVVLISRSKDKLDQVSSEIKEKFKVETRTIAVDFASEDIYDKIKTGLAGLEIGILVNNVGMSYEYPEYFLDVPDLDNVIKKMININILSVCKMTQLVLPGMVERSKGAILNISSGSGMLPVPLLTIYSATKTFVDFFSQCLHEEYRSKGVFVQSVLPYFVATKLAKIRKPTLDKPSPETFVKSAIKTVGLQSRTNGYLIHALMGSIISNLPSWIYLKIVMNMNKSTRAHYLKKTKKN

[4] = target: T3, A-DA lipid probe targets in A549 cells (Homo sapiens, UniProt Q86XL3)
T3 sequence (Q86XL3 1-938): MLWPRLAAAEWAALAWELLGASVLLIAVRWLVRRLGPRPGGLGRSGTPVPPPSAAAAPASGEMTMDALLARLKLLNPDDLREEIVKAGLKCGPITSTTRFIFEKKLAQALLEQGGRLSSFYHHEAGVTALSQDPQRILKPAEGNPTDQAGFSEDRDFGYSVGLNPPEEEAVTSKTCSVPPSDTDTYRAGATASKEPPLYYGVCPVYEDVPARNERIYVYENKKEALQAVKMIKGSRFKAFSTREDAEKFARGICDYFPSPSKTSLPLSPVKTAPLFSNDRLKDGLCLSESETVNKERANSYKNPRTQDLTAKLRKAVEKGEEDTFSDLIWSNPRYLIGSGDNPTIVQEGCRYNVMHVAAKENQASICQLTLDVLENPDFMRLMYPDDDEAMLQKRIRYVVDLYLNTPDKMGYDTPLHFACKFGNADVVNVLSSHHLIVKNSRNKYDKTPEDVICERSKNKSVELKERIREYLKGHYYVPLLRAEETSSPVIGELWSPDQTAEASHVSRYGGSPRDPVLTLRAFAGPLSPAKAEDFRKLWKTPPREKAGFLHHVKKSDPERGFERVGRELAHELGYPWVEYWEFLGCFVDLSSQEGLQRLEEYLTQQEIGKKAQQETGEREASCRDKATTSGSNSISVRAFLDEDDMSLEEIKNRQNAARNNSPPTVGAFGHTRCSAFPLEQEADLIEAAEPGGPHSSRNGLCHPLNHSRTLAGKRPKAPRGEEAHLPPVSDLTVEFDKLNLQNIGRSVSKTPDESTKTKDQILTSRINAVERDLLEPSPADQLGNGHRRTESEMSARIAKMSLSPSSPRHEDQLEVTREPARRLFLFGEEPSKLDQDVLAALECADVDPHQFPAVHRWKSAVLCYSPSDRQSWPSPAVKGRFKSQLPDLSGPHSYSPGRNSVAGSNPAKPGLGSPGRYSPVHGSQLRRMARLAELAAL

[5] = target: T4, A-DA lipid probe targets in A549 cells (Homo sapiens, UniProt Q8IZV5)
T4 sequence (Q8IZV5 1-341): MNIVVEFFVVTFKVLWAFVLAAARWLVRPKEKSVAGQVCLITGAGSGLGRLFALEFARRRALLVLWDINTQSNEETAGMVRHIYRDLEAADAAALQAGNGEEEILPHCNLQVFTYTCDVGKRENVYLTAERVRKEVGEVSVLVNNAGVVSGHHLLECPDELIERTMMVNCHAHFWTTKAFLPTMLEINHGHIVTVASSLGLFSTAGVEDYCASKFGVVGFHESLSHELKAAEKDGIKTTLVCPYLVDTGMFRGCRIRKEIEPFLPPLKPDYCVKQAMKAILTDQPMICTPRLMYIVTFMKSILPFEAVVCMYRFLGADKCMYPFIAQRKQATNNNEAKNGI

[6] = target: T5, A-DA lipid probe targets in A549 cells (Homo sapiens, UniProt Q99536)
T5 sequence (Q99536 1-393): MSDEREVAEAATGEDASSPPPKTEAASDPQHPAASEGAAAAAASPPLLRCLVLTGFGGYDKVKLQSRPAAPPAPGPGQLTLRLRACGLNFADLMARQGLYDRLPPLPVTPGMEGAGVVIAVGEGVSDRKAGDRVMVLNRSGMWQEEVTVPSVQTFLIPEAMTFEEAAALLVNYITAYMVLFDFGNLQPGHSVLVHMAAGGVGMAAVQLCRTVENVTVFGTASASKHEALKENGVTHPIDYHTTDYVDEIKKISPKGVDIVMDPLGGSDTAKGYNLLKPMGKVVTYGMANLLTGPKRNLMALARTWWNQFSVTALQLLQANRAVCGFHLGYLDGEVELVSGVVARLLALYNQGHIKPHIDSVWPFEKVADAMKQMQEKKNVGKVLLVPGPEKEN

Sequence of A-DA lipid probe targets in A549 cells (Homo sapiens, UniProt Q14534) (Q14534 whole entry): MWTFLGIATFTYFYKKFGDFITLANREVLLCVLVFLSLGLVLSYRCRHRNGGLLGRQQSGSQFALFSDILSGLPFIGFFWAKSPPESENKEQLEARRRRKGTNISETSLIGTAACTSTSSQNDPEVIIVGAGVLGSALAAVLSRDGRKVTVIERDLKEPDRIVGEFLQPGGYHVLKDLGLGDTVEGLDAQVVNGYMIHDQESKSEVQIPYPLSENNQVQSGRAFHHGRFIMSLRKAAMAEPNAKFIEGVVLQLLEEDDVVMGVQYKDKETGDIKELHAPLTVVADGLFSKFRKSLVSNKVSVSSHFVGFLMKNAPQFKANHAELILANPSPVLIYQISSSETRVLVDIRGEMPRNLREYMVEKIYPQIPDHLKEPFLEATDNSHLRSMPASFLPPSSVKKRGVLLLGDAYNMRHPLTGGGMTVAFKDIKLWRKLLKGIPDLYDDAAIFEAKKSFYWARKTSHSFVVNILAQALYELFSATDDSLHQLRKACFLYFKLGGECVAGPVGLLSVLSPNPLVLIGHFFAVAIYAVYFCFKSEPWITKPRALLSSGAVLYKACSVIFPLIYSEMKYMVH

Row | SMILES | SILAC ratio, EMD (O08579) ([1]; competitor 25 μM) | SILAC ratio, SQLE (Q14534) ([2]; competitor 25 μM) | SILAC ratio, HSD17B12 (Q53GQ0) ([3]; competitor 25 μM) | SILAC ratio, ANKLE2 (Q86XL3) ([4]; competitor 25 μM) | SILAC ratio, RDH10 (Q8IZV5) ([5]; competitor 25 μM) | SILAC ratio, VAT1 (Q99536) ([6]; competitor 25 μM) | SILAC ratio, EMD (O08579) ([1]; competitor 5 μM) | SILAC ratio, EMD (O08579) ([1]; competitor 50 μM) | SILAC ratio, SQLE (Q14534) ([2]; competitor 5 μM) | SILAC ratio, SQLE (Q14534) ([2]; competitor 50 μM) | SILAC ratio, HSD17B12 (Q53GQ0) ([3]; competitor 5 μM) | SILAC ratio, HSD17B12 (Q53GQ0) ([3]; competitor 50 μM) | SILAC ratio, ANKLE2 (Q86XL3) ([4]; competitor 5 μM) | SILAC ratio, ANKLE2 (Q86XL3) ([4]; competitor 50 μM) | SILAC ratio, RDH10 (Q8IZV5) ([5]; competitor 5 μM) | SILAC ratio, RDH10 (Q8IZV5) ([5]; competitor 50 μM) | SILAC ratio, VAT1 (Q99536) ([6]; competitor 5 μM) | SILAC ratio, VAT1 (Q99536) ([6]; competitor 50 μM)
1 | O=C(/C=C/c1cccnc1)NCCCCC1CCN(C(=O)c2ccccc2)CC1 [FK-866, reference compound] | 1.3 | 1.6 | 1.4 | 1.3 | 3.1 | 4.0 | – | – | – | – | – | – | – | – | – | – | – | –
2 | C=CCN(C)CCCCCCOc1ccc(C(=O)c2ccc(Br)cc2)c(F)c1 [Ro488071] | – | – | – | – | – | – | 0.6 | 0.8 | 1.4 | 3.3 | 1.4 | 3.0 | 1.7 | 3.1 | 1.9 | 2.8 | 1.4 | 2.5
